ChEMBL document CHEMBL5550160, “Leveraging a rationally designed veliparib-based anilide eliciting anti-leukemic effects for the design of pH-responsive polymer nanoformulation” (Eur J Med Chem, 2024)
Active and inactive are the calls of the source. The calls are words filed in the database; no cut-off is given here.

How the values were obtained:
HH = assay: cells; assay type: functional, cell-based; conditions: Homo sapiens
Description: Antiproliferative activity against human HH cells assessed as inhibition of cell growth by MTT assay

SiHa = assay: cells; assay type: functional, cell-based; conditions: Homo sapiens
Description: Antiproliferative activity against human SiHa cells assessed as inhibition of cell growth by MTT assay

Histone deacetylase 2 [1] = molecular target: T1, Histone deacetylase 2 (Homo sapiens, UniProt Q92769); assay: Inhibition of HDAC2 (unknown origin) assessed as residual activity at 1 x 10^-5M (reference value: 99.81%); conditions: dose 1.0 10^-5M
T1 sequence (Q92769 whole entry, the tested form may be a part): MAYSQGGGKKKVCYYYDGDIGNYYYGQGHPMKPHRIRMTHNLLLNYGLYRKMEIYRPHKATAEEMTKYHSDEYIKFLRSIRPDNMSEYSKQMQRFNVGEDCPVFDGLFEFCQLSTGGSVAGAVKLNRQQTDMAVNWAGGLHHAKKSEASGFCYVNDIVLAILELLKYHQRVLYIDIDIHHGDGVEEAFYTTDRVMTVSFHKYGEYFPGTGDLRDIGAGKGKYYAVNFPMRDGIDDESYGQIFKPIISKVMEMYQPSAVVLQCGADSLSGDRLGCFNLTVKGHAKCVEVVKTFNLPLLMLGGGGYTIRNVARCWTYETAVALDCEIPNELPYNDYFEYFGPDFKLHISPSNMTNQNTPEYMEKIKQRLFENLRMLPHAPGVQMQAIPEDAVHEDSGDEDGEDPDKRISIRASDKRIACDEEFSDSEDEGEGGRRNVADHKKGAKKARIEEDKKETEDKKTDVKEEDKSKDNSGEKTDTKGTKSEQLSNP

Histone deacetylase 1 = Histone deacetylase 1 (Homo sapiens, UniProt Q13547); assay: Inhibition of HDAC1 (unknown origin) using p53 residues 379 to 382 [RHKK(Ac)] as fluorogenic substrate assessed as residual activity at 5.08 x 10^-10M (reference value: 98.06%); conditions: dose 5.08 10^-10M
Sequence of Histone deacetylase 1 (Q13547 whole entry, the tested form may be a part): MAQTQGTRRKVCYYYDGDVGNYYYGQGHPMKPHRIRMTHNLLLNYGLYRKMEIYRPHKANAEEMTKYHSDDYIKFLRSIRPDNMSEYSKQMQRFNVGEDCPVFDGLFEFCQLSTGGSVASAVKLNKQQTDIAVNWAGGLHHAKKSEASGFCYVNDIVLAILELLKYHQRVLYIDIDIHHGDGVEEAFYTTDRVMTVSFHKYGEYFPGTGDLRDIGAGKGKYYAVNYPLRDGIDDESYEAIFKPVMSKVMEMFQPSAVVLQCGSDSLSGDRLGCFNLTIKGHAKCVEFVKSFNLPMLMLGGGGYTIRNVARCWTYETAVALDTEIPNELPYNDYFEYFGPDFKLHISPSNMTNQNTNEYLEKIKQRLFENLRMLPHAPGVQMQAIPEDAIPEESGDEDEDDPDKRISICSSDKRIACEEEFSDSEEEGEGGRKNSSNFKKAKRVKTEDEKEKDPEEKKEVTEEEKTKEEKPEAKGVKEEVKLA

Histone deacetylase 2 [2] = molecular target: T1, Histone deacetylase 2; assay: Inhibition of HDAC2 (unknown origin) assessed as residual activity at 1.37 x 10^-8M (reference value: 99.81%); conditions: dose 1.37 10^-8M
Histone deacetylase 2 [3] = molecular target: T1, Histone deacetylase 2; assay: Inhibition of HDAC2 (unknown origin) assessed as residual activity at 4.57 x 10^-9M (reference value: 99.81%); conditions: dose 4.57 10^-9M
Histone deacetylase 3 = Histone deacetylase 3 (Homo sapiens, UniProt O15379); assay: Inhibition of HDAC3 (unknown origin) using p53 residues 379 to 382 [RHKK(Ac)] as fluorogenic substrate assessed as residual activity at 1.23 x 10^-7M (reference value: 103.08%); conditions: dose 1.23 10^-7M
Sequence of Histone deacetylase 3 (O15379 whole entry, the tested form may be a part): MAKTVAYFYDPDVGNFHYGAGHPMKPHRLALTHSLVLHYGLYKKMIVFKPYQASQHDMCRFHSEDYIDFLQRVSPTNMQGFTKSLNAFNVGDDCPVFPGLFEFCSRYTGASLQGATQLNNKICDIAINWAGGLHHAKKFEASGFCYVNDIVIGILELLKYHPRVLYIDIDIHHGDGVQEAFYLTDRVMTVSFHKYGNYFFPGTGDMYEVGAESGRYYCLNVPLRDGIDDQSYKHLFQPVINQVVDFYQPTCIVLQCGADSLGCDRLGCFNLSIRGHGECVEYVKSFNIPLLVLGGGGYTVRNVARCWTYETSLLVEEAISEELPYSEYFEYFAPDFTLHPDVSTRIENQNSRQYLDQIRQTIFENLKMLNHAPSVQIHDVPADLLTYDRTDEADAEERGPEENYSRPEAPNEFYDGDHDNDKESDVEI

[4] = molecular target: Histone deacetylase 4 (Homo sapiens) (UniProt P56524); assay: Inhibition of HDAC4 (unknown origin) assessed as residual activity at 1.37 x 10^-8M (reference value: 98.90%); conditions: dose 1.37 10^-8M
Sequence of Histone deacetylase 4 (Homo sapiens) (P56524 whole entry, the tested form may be a part): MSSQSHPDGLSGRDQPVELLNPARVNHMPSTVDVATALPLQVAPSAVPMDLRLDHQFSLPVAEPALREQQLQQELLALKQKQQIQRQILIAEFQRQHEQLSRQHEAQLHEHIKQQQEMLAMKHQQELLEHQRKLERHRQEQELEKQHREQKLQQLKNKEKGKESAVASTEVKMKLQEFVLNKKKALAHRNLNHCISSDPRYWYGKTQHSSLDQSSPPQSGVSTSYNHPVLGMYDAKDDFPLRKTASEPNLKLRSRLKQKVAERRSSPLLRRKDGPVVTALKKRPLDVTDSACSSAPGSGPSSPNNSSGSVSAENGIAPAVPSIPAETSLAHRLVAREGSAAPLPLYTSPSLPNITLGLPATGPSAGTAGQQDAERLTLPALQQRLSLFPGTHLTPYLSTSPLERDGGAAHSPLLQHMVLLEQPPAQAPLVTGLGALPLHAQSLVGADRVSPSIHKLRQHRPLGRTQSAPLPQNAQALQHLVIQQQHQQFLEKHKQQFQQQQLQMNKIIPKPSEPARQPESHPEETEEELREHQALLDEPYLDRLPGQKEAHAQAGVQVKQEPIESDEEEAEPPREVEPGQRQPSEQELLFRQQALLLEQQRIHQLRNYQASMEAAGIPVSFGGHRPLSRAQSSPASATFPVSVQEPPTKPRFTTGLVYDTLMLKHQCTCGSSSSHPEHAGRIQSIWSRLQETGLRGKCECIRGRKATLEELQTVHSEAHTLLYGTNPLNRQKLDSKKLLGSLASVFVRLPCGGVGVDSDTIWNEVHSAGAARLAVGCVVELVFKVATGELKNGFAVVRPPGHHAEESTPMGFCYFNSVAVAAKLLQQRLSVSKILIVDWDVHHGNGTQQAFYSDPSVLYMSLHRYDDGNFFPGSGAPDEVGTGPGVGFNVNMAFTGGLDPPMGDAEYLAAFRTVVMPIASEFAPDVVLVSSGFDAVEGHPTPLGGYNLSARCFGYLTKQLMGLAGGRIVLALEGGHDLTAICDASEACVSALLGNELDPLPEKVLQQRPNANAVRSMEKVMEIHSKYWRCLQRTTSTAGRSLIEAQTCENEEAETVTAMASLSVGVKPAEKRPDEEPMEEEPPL

[5] = molecular target: T2, Protein deacetylase HDAC6 (Homo sapiens) (UniProt Q9UBN7); assay: Inhibition of HDAC6 (unknown origin) using p53 residues 379 to 382 [RHKK(Ac)] as fluorogenic substrate assessed as residual activity at 1.23 x 10^-7M (reference value: 101.06%); conditions: dose 1.23 10^-7M
T2 sequence (whole entry): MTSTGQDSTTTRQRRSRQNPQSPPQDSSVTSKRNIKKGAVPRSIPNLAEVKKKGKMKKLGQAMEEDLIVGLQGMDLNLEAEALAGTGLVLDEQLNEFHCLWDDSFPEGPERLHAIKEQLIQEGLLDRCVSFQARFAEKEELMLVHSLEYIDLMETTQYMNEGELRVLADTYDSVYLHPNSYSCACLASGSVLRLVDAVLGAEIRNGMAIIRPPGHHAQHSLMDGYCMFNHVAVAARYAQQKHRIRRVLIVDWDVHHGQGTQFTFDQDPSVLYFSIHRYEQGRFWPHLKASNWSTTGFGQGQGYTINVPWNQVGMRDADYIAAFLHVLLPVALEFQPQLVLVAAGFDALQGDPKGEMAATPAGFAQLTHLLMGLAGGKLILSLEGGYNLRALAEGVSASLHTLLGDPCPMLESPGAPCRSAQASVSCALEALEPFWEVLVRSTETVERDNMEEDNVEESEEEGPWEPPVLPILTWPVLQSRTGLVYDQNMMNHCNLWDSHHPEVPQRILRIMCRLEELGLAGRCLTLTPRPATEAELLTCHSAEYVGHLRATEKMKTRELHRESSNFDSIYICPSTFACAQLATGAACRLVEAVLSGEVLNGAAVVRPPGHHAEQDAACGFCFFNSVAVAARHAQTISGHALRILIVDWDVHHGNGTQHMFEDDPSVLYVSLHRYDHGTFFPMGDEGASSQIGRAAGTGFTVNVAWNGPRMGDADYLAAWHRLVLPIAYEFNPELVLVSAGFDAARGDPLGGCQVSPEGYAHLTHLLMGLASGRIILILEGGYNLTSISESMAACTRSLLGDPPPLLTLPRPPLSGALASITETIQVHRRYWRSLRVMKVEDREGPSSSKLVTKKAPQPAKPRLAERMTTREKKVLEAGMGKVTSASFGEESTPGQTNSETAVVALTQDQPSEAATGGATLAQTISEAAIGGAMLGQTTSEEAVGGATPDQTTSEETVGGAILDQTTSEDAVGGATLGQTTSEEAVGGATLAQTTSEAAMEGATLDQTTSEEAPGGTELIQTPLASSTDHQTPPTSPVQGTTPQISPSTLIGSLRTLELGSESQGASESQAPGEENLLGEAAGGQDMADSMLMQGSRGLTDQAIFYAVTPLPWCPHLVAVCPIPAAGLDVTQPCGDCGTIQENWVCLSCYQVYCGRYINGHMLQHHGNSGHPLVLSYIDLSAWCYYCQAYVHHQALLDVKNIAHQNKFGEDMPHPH

[6] = molecular target: T2, Protein deacetylase HDAC6 (Homo sapiens); assay: Inhibition of HDAC6 (unknown origin) using p53 residues 379 to 382 [RHKK(Ac)] as fluorogenic substrate assessed as residual activity at 4.12 x 10^-8M (reference value: 101.06%); conditions: dose 4.12 10^-8M
[7] = molecular target: T3, Histone deacetylase 8 (Homo sapiens) (UniProt Q9BY41); assay: Inhibition of HDAC8 (unknown origin) assessed as residual activity at 1.23 x 10^-7M (reference value: 100%); conditions: dose 1.23 10^-7M
T3 sequence (whole entry): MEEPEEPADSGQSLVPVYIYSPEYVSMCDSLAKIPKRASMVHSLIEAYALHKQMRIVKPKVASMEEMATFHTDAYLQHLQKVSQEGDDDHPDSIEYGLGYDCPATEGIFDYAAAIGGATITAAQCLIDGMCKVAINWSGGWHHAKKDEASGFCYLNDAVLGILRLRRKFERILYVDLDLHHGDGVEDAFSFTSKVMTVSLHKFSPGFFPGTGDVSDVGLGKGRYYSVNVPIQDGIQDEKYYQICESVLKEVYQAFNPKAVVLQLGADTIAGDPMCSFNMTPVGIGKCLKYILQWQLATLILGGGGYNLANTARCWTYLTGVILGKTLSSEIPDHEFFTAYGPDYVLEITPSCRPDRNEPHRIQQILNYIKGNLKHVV

[8] = molecular target: Histone deacetylase 9 (Homo sapiens) (UniProt Q9UKV0); assay: Inhibition of HDAC9 (unknown origin) assessed as residual activity at 1.1 x 10^-6M (reference value: 97.55%); conditions: dose 1.1 10^-6M
Sequence of Histone deacetylase 9 (Homo sapiens) (Q9UKV0 whole entry): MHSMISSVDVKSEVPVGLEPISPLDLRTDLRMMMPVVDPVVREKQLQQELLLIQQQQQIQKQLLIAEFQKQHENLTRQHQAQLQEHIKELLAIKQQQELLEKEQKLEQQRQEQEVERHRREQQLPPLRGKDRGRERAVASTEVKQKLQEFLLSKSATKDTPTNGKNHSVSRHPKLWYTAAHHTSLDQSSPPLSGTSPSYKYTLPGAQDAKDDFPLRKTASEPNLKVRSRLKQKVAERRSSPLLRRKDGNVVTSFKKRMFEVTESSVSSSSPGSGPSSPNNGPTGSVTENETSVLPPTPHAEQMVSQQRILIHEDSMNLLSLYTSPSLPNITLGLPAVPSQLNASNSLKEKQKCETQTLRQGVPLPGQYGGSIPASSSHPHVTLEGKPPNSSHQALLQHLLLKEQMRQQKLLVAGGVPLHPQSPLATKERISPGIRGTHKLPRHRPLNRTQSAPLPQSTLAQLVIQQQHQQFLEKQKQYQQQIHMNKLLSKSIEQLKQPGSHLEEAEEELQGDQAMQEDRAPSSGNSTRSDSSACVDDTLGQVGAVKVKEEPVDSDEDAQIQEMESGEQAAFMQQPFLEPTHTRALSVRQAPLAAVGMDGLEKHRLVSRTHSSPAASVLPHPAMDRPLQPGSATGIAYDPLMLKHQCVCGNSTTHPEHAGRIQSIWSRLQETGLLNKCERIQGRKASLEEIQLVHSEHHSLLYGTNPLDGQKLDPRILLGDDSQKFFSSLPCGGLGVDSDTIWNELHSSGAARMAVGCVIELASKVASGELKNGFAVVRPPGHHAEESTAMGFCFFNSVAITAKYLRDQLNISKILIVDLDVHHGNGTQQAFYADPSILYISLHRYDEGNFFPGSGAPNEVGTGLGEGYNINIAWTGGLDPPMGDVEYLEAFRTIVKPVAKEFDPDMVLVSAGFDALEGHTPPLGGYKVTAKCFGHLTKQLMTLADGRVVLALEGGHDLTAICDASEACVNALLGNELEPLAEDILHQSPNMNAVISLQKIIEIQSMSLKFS

[9] = molecular target: Histone deacetylase 9 (Homo sapiens) (UniProt Q9UKV0); assay: Inhibition of HDAC9 (unknown origin) assessed as residual activity at 4.57 x 10^-9M (reference value: 97.55%); conditions: dose 4.57 10^-9M
HL-60 [10] = assay: Induction of cell cycle arrest in G0/G1 phase in human HL-60 cells at 0.5 to 1 times IC50 by PI staining based flow cytometry analysis; assay type: functional
HL-60 [11] = assay: Induction of cell cycle arrest in human HL-60 cells assessed as accumulation of cells at sub-G1 phase at 0.5 to 1 times IC50 by PI staining based flow cytometry analysis; assay type: functional

In the case of `NC(=O)c1cccc2[nH]c(-c3ccc(NCc4ccc(C(=O)Nc5ccccc5N)cc4)cc3)nc12`, the IC50 (HH) is reported as 1010 nM, the IC50 (SiHa) is reported as greater than 10000 nM and the Activity (Histone deacetylase 2 [1]) is reported as 7.52%. It also gave an Activity (Histone deacetylase 1) of 93.5%, an Activity (Histone deacetylase 2 [2]) of 86.2% and an Activity (Histone deacetylase 2 [3]) of 89.2%. The Activity (Histone deacetylase 3) was 84.1%, the Activity [4] was 96.3% and the Activity [5] was 91.9%. It also gave an Activity [6] of 99.2%, an Activity [7] of 104% and an Activity [8] of 93%. For the same compound, the Activity [9] was 82.9%, the Activity (HL-60 [10]) was “Dose-Dependent Effect” and the Activity (HL-60 [11]) was “inactive”.
